The values that follow are results of earlier work, collected in patent US8183280B2, “FAP inhibitors” (Vantia Limited, priority 2005, dated 2012).

This series relates to syngeneic tumours. Particulars: mice, oral administration; Cancer Res., 2004, 64: 5471.

Turning to `CC(C)[C@H](N)C(=O)N1CCC[C@H]1B(O)O` [ValboroPro], the anti-tumour activity entry is recorded as “potent anti-tumour activity in mice”.
